Test results: patent US4971967A, “Quinolinecarboxylic acid derivatives, antibacterial compositions and use” (Kanebo Ltd, priority 1989, dated 1990)
In brackets after ≈: the same amount, converted by molar mass.

Assays:
[1] = Acute toxicity (LD50) (Experiment 6); details: mouse, in vivo; oral, mice fasted 18 hours, observed for a week
Method: (§1) The compound (O) or (P) of the present invention was suspended in sterilized distilled water to prepare a suspension. The suspension was orally adminstered to ddY male mice (5 weeks age, weighing 20 to 25 g, 5 mice in each group), which had been fasted for 18 hours.

[2] = Low toxicity (Experiments 5 and 6); format: in vivo, ddY male mice; details: result in words
Method: The compound (A) or (J) of the present invention was suspended in 1% (w/v) aqueous gum arabic to prepare a suspension in concentration of 100 mg/ml. The suspension was orally administered to ddY male mice (5 weeks age, weighing 20 to 25 g, 5 mice in each group), which had been fasted for 18 hours, at a rate of 2000 mg/kg body weight of the compound (A) or (J).
as §1

[3] = test system: Pseudomonas aeruginosa E-2; assay: Antibacterial activity (MIC), P. aeruginosa E-2; format: cell-based; details: E2; Pseudomonas aeruginosa E-2, Gram -; read-out: Minimum inhibitory concentration (MIC)
Method: (§2) The compounds of the present invention (A, C, D, E, F, G, H, I, J, L, O and P) and the known compound (X) as reference were dissolved in 0.1 N aqueous sodium hydroxide to prepare a solution of 5000 μg/ml in concentration. The compounds of the present invention (B, K, M and N) and the known compound (Y) were dissolved in sterilized distilled water to prepare a solution of 5000 μg/ml in concentration. Each solution was diluted with sterilized distilled water to prepare a standard solution with a concentration of each test compound: 1000 μg/ml. The test was carried out by a method as appointed by Japan Society of Chemotherapy [cf. Chemotherapy, 29, 76-79 (1981)(TOKYO)].

[4] = test system: Pseudomonas aeruginosa E-2; assay: Effect on treatment of general infectious disease, P. aeruginosa E-2 (Experiment 4); format: in vivo, ddY male mice infected with Pseudomonas aeruginosa; details: E2, 168 h, oral, 1 h after i.p. infection, 3.4×10^4 CFU/mouse, survival after one week
Method: (§3) The test microorganisms were subjected to standing culture in Trypto-Soya Agar "Nissui" (made by Nissui Seiyaku K.K., Japan) at 37° C. for 16 to 18 hours. The culture was then diluted with PBS (Dulbecco's phosphate buffered saline) and mixed with an equivalent amount of 10% (w/v) Mucin (BACTO MUCIN BACTERIOLOGICAL, made by Difco Co.) to prepare a microorganism solution. The thus prepared microorganism solution (0.5 ml each) was intraperitoneally inoculated to ddY male mice (5 weeks age, weighing 25-28 g, 5 mice in each group), to infect the animals. One hour after the infection, the compound (A) or (J) of the present invention or the known compound (X) suspended in 1% (w/v) aqueous gum arabic or the known compound (Y) dissolved in sterilized distilled water was orally adiministered to mice.
(§4) The mice were daily observed for one week, and from the survival number of mice after one week, the 50% effective dose (ED50) was calculated by Weil method.
Pseudomonas aeruginosa E-2 (3.4×10^4 CFU/mouse)
(§5) The procedure of Experiment 3 was repeated except that ddY male mice weighing 24 to 28 g were employed.

[5] = test system: Staphylococcus aureus IID 803; assay: Effect on treatment of general infectious disease, S. aureus IID 803 (Experiment 4); format: in vivo, ddY male mice infected with Staphylococcus aureus; details: IID803, 168 h, oral, 1 h after i.p. infection, 2.1×10^7 CFU/mouse, survival after one week
Method: as §3, §4
Staphylococcus aureus IID 803 (2.1×10^7 CFU/mouse)
as §5

[6] = test system: Morganella morganii IFO 3848; assay: Antibacterial activity (MIC), Morganella morganii IFO 3848; format: cell-based; details: Morganella morganii, IFO3848, Morganella morganii IFO 3848, Gram -; read-out: Minimum inhibitory concentration (MIC)
Method: as §2

[7] = test system: Citrobacter freundii NIHJ 10018-68; assay: Antibacterial activity (MIC), Citrobacter freundii NIHJ 10018-68; format: cell-based; details: Citrobacter freundii, NIHJ10018, Citrobacter freundii NIHJ 10018-68, Gram -; read-out: Minimum inhibitory concentration (MIC)
Method: as §2

[8] = test system: Pseudomonas aeruginosa IFO 3445; assay: Antibacterial activity (MIC), P. aeruginosa IFO 3445; format: cell-based; details: Pseudomonas aeruginosa, IFO3445, Pseudomonas aeruginosa IFO 3445, Gram -; read-out: Minimum inhibitory concentration (MIC)
Method: as §2

[9] = test system: Serratia marcescens IAM 1184; assay: Antibacterial activity (MIC), Serratia marcescens IAM 1184; format: cell-based; details: Serratia marcescens, IAM1184, Serratia marcescens IAM 1184, Gram -; read-out: Minimum inhibitory concentration (MIC)
Method: as §2

[10] = test system: Pseudomonas aeruginosa NCTC 10490; assay: Antibacterial activity (MIC), P. aeruginosa NCTC 10490; format: cell-based; details: Pseudomonas aeruginosa, NCTC10490, Pseudomonas aeruginosa NCTC 10490, Gram -; read-out: Minimum inhibitory concentration (MIC)
Method: as §2

Enterobacter cloacae 963 = assay: Antibacterial activity (MIC), Enterobacter cloacae 963; format: cell-based; details: Enterobacter cloacae, 963, Enterobacter cloacae 963, Gram -; read-out: Minimum inhibitory concentration (MIC)
Method: as §2

Proteus vulgaris OX-19 = assay: Antibacterial activity (MIC), Proteus vulgaris OX-19; format: cell-based; details: OX19; Proteus vulgaris OX-19, Gram -; read-out: Minimum inhibitory concentration (MIC)
Method: as §2

[11] = test system: Bacillus subtilis ATCC 6633; assay: Antibacterial activity (MIC), Bacillus subtilis ATCC 6633; format: cell-based; details: Bacillus subtilis, ATCC6633, Bacillus subtilis ATCC 6633, Gram +; read-out: Minimum inhibitory concentration (MIC)
Method: as §2

[12] = test system: Staphylococcus aureus IID 803; assay: Antibacterial activity (MIC), S. aureus IID 803; format: cell-based; details: IID803; Staphylococcus aureus IID 803, Gram +; read-out: Minimum inhibitory concentration (MIC)
Method: as §2

Shigella sonnei EW-33 = assay: Antibacterial activity (MIC), Shigella sonnei EW-33; format: cell-based; details: Shigella sonnei, EW33, Shigella sonnei EW-33, Gram -; read-out: Minimum inhibitory concentration (MIC)
Method: as §2

[13] = test system: Klebsiella pneumoniae PCI-602; assay: Antibacterial activity (MIC), Klebsiella pneumoniae PCI-602; format: cell-based; details: PCI602; Klebsiella pneumoniae PCI-602, Gram -; read-out: Minimum inhibitory concentration (MIC)
Method: as §2

[14] = test system: Proteus mirabilis IFO 3849; assay: Antibacterial activity (MIC), Proteus mirabilis IFO 3849; format: cell-based; details: IFO3849; Proteus mirabilis IFO 3849, Gram -; read-out: Minimum inhibitory concentration (MIC)
Method: as §2

[15] = test system: Micrococcus luteus ATCC 9341; assay: Antibacterial activity (MIC), Micrococcus luteus ATCC 9341; format: cell-based; details: ATCC9341; Micrococcus luteus ATCC 9341, Gram +; read-out: Minimum inhibitory concentration (MIC)
Method: as §2

infection = assay: Protective effects against infection (Experiments 3 and 4); format: in vivo, ddY male mice; details: result in words
Method: as §3, §4, §5

Escherichia coli KC-14 = assay: Antibacterial activity (MIC), E. coli KC-14; format: cell-based; details: KC14; Escherichia coli KC-14, Gram -; read-out: Minimum inhibitory concentration (MIC)
Method: as §2

[16] = test system: Enterobacter aerogenes ATCC 13048; assay: Antibacterial activity (MIC), Enterobacter aerogenes ATCC 13048; format: cell-based; details: Klebsiella aerogenes, ATCC13048; Enterobacter aerogenes ATCC 13048, Gram -; read-out: Minimum inhibitory concentration (MIC)
Method: as §2

[17] = test system: Escherichia coli NIHJ JC-2; assay: Antibacterial activity (MIC), E. coli NIHJ JC-2; format: cell-based; details: NIHJJC2; Escherichia coli NIHJ JC-2, Gram -; read-out: Minimum inhibitory concentration (MIC)
Method: as §2

[18] = test system: Streptococcus faecalis IID 682; assay: Antibacterial activity (MIC), Streptococcus faecalis IID 682; format: cell-based; details: Enterococcus faecalis, IID682, Streptococcus faecalis IID 682, Gram +; read-out: Minimum inhibitory concentration (MIC)
Method: as §2

[19] = test system: Salmonella typhimurium IID 971; assay: Antibacterial activity (MIC), Salmonella typhimurium IID 971; format: cell-based; details: Salmonella enterica; Salmonella typhimurium IID 971, Gram -; read-out: Minimum inhibitory concentration (MIC)
Method: as §2

[20] = test system: Staphylococcus epidermidis IAM-1296; assay: Antibacterial activity (MIC), S. epidermidis IAM-1296; format: cell-based; details: Staphylococcus epidermidis, IAM1296, Staphylococcus epidermidis IAM-1296, Gram +; read-out: Minimum inhibitory concentration (MIC)
Method: as §2

[21] = test system: Staphylococcus aureus FDA 209P JC-1; assay: Antibacterial activity (MIC), S. aureus FDA 209P JC-1; format: cell-based; details: FDA209P; Staphylococcus aureus FDA 209P JC-1, Gram +; read-out: Minimum inhibitory concentration (MIC)
Method: as §2

[22] = test system: Acinetobacter calcoaceticus AC 54; assay: Antibacterial activity (MIC), Acinetobacter calcoaceticus AC 54; format: cell-based; details: AC54; Acinetobacter calcoaceticus AC 54, Gram -; read-out: Minimum inhibitory concentration (MIC)
Method: as §2

## CC1CN(c2c(F)cc3c(=O)c(C(=O)O)c4scc5n4c3c2N(C)C5)CCN1C (stereo not drawn) [Compound (O), 9,1-(Methylimino)methano-7-fluoro-8-(3,4-dimethyl-1-piperazinyl)-5-oxo-5H-thiazolo[3,2-a]-quinoline-4-carboxylic acid]
[1]
  LD50 at 168 h: 1410 mg/kg
[2]
  toxicity: low toxicity
[3]
  MIC: 0.78 µg/mL (≈ 1.87 µM)
[4]
  ED50: 9.4 mg/kg
[5]
  ED50: 2.8 mg/kg
[6]
  MIC: 0.2 µg/mL (≈ 0.48 µM)
[7]
  MIC: 0.39 µg/mL (≈ 0.936 µM)
[8]
  MIC: 1.56 µg/mL (≈ 3.75 µM)
[9]
  MIC: 0.39 µg/mL (≈ 0.936 µM)
[10]
  MIC: 0.78 µg/mL (≈ 1.87 µM)
Enterobacter cloacae 963
  MIC: 0.1 µg/mL (≈ 0.24 µM)
Proteus vulgaris OX-19
  MIC: 0.025 µg/mL (≈ 0.06 µM)
[11]
  MIC: 0.0125 µg/mL (≈ 0.03 µM)
[12]
  MIC: 0.025 µg/mL (≈ 0.06 µM)
Shigella sonnei EW-33
  MIC: 0.05 µg/mL (≈ 0.12 µM)
[13]
  MIC: 0.006 µg/mL (≈ 0.0144 µM)
[14]
  MIC: 0.39 µg/mL (≈ 0.936 µM)
[15]
  MIC: 0.39 µg/mL (≈ 0.936 µM)
infection
  protective effects against infection: excellent protective effects against infection
Escherichia coli KC-14
  MIC: 0.05 µg/mL (≈ 0.12 µM)
[16]
  MIC: 0.1 µg/mL (≈ 0.24 µM)
[17]
  MIC: 0.05 µg/mL (≈ 0.12 µM)
[18]
  MIC: 0.1 µg/mL (≈ 0.24 µM)
[19]
  MIC: 0.2 µg/mL (≈ 0.48 µM)
[20]
  MIC: 0.05 µg/mL (≈ 0.12 µM)
[21]
  MIC: 0.025 µg/mL (≈ 0.06 µM)
[22]
  MIC: 0.025 µg/mL (≈ 0.06 µM)
